In US20060110376A1, “MDA-7 and free radicals in the treatment of cancer” (priority 2002, published 2006):

How the values were obtained:
Format in all cases: cell-based, human
[1] = tested on: pancreatic carcinoma cells; test: ROS production (flow cytometry)
Protocol: FIG. 46. Combined treatment by NSC656240 or Ar2O3 and Ad.mda-7 causes overproduction of ROS in pancreatic carcinoma cells.
Assessment of ROS Production. To determine ROS production, cells were stained with 2.5 μM HE or 5 μM DCFH-DA in PBS for 30 min at 37° C. in the dark. Immediately after staining, cells were analyzed by flow cytometry (FACSscan, Becton-Dickinson, Mountain View, Calif.), and data were analyzed using CellQuest software, version 3.1 (Becton Dickinson). For inhibition experiments, NAC (Sigma) was added 2 h prior to infection with Ad.mda-7. In all cases, cells were gated to exclude cell debris.

[2] = tested on: pancreatic carcinoma cells; test: MTT viability assay
Protocol: MTT Viability Assays. Cell viability was assessed by MTT assays as described (Lebedeva et al., 2000, Cancer Research 60:6052-6060). Briefly, cells were seeded in 96-well tissue culture plates (1.5×10^3 cells per well) and treated with various agents. At the indicated times, medium was removed, and fresh medium containing 0.5 mg/ml MTT was added to each well. The cells were incubated at 37° C. for 4 h and then an equal volume of solubilization solution (0.01N HCl in 10% SDS) was added to each well and mixed thoroughly. The optical density from the plates was read on a BioRad Microplate Reader Model 550 at 595 nm.

[3] = tested on: prostate carcinoma cell lines (DU-145, PC-3, LNCaP); test: MTT viability assay; conditions: 48 h
Protocol: (§1) Cells were seeded in 96-well plates, pretreated with NAC (5 mM) or Tiron (1 mM) for 2 h and infected with Ad.mda-7. Forty eight hours later, viability was assessed by MTT assay. […] Cells were seeded in 96-well plates, infected with Ad.mda-7 and treated with As2O3 (10 μM) or NSC656240 (400 nM). Forty eight h later, viability was assessed by MTT assay. Panel C. […] After treatment, cells were stained using DCF-DA and analyzed using flow cytometry. […] After treatment, cells were washed and stained with Annexin V-FITC conjugate. Late apoptotic and necrotic cells were excluded using PI staining. Results are the mean of three independent experiments performed with triplicate samples±S.E.
[…] Cellular viability was assessed by MTT assay 48 h after infection (Panel A). Mitochondrial membrane potential (DiOC6(3) staining, Panel B) and apoptotic changes (Annexin V staining, Panel C) were assessed 18 h (LNCaP cells) and 24 h (DU-145, PC-3 and P69 cells) after infection.
MTT Viability Assays. This method was performed as described (Lebedeva et al., 2000, Cancer Research 60:6052-6060). […] At the indicated time points, medium was removed, and fresh medium containing 0.5 mg/ml MTT was added to each well. The cells were incubated at 37° C. for 4 h and then an equal volume of solubilization solution (0.01N HCl in 10% SDS) was added to each well and mixed thoroughly. The optical density from the plates was read on a BioRad Microplate Reader Model 550 at 595 nm.

[4] = tested on: pancreatic cancer cells stably transformed to express MDA-7; test: Apoptosis and cell death in cells stably expressing MDA-7
Source text: FIG. 49. Induction of apoptosis in pancreatic cancer cell lines (PANC-1) stably expressing MDA-7.
FIG. 50. Induction of apoptosis in pancreatic cancer cell lines (Mia PaCa-2) stably expressing MDA-7.
FIG. 51. Induction of apoptosis in pancreatic cancer cell lines (FM516 or BxPC-3) stably expressing MDA-7.

[5] = tested on: pancreatic cancer cell lines; test: Western blotting of K-ras and MDA-7 protein
Source text: FIG. 43. MDA-7 expression in pancreatic cancer cell lines in the presence or absence of Ad.mda-7, Ad.K-rasAS, or NSC656243. The presence of MDA-7 in mutant K-ras cell lines requires expression of both mda-7 and the antisense K-ras construct, and is potentiated by NSC656243.
FIG. 45. The MDA-7 expression observed in the PANC-1 or BxPC-3 cell lines following administration of Ad.mda-7 in combination with either NSC656240 or Ar2O3 is abrogated by NAC administration.
Preparation of Cell Extracts and Western Blotting Analysis. Cells were washed 2× with cold PBS and lysed on ice for 30 min in […] of cold RIPA buffer [50 mM Tris-HCl (pH 8.0), 150 mM NaCl, 0.1% SDS, 1% NP40, and 0.5% sodium deoxycholate] with freshly added 0.1 mg/ml phenylmethylsulfonyl fluoride, 1 mM sodium orthovanadate, and 1 mg/ml aprotinin. After cell debris were removed by centrifugation at 14,000 g for 10 min at 4° C., protein concentrations were determined using the Bio-Rad protein assay system (Bio-Rad Laboratories, Richmond, Calif.). Aliquots of cell extracts containing […] of total protein were resolved in 12% SDS-PAGE and transferred to Immobilon-P PVDF membranes (Millipore Corp., Bedford, Mass.). Filters were blocked for 1 h at room temperature in Blotto A [5% nonfat milk powder in TBS-T: 10 mM Tris-HCl (pH 8.0), 150 mM NaCl, 0.05% Tween 20], and then incubated for 1 h at room temperature in Blotto A containing a 1:1000 dilution of rabbit anti MDA-7 polyclonal antibody. After washing in TBS-T buffer (3×5 min, RT), filters were incubated for 1 h at room temperature in Blotto A containing a 1:10,000 dilution of peroxidase conjugated anti-rabbit secondary antibody (Amersham, Arlington Heights, Ill.). After washing in TBS-T, ECL was performed according to the manufacturer's recommendation.

prostate carcinoma cells = test: ROS production (DCF fluorescence, flow cytometry)
Protocol: as §1

[6] = tested on: pancreatic carcinoma cells; test: Apoptosis (annexin V exposure, hypodiploid A0 cells)
Source text: FIG. 39. Combined treatment of pancreatic carcinoma cells by NSC656240 and Ad.mda-7 increases levels of annexin V in pancreatic cancer cells irrespective of K-ras status.
FIG. 40. NAC administration prevents the apoptosis of pancreatic cancer cells induced by treatment of pancreatic carcinoma cells by NSC656240 or Ar2O3 and Ad.mda-7.
FIG. 41. Combined treatment of pancreatic carcinoma cells by NSC656240 or Ar2O3 and Ad.mda-7 causes apoptosis irrespective of K-ras status.
Annexin V Binding Assays. Cells were trypsinized, washed once with complete medium and stained with FITC-labeled Annexin-V (kit from Oncogene Research Products, Boston, Mass.) according to the manufacturer's instructions. Flow cytometry was performed immediately after staining.
Cell Cycle Analysis. Cells were trypsinized, washed 2× with PBS and fixed in 70% ethanol overnight at −20° C. Then cells were washed 2 times with PBS, and aliquots of 1×10^6 cells were resuspended in 1 ml of PBS containing 1 mg/ml of RNase A and 0.5 mg/ml of propidium iodide. After 30 min incubation, cells were analyzed by flow cytometry using a FACScan flow cytometer (Becton Dickinson, San Jose, Calif.).

Row | Compound | effect of NAC on ROS production [1] | effect of N-acetyl-cysteine on death after combinational treatment [2] | effect of antioxidant on cell death promoting activity of Ad.mda-7 ([3]; NAC 5 mM, Tiron 1 mM) | effect of NAC on apoptosis and cell death [4] | effect of NAC on MDA-7 expression and secretion ([5]; both type of cells) | effect of NAC on Ad.mda-7-induced ROS generation (prostate carcinoma cells; non-cytotoxic dose of NAC) | effect of NAC on apoptosis after combination treatment [6] | ROS production, combined treatment with Ad.mda-7 [1] | cell death, combinational treatment with Ad.mda-7 ([2]; Ad.mda-7 100 p.f.u./cell) | effect of ROS-producing agent on cell death of Ad.mda-7-infected cells ([3]; As2O3 10 μM, NSC656240 400 nM) | apoptosis and cell death [4] | MDA-7 protein expression and secretion, combined treatment with Ad.mda-7 ([5]; wt and mutated K-ras pancreatic cancer cell lines) | ROS levels (prostate carcinoma cells; treated with NSC656240 or As2O3) | apoptosis, combination treatment with Ad.mda-7 ([6]; annexin V exposure and A0 population)
1 | CC(=O)N[C@@H](CS)C(=O)O [NAC, N-acetyl-cysteine] | blocked ROS production | death can be prevented | abrogated | blocks these processes | abrogates MDA-7 expression and secretion | suppressed Ad.mda-7-induced ROS generation | prevents apoptosis |  |  |  |  |  |  | 
2 | arsenic trioxide |  |  |  |  |  |  |  | Caused ROS overproduction | caused death of these cells irrespective of their K-ras status | potentiated cell death | caused apoptosis and cell death | leads to MDA-7 protein expression and secretion | ROS levels increased proportionally | caused apoptosis in pancreatic carcinoma cells independently of their K-ras status
